The values below come from patent US12606739B2, “Luminescent compound, method for producing luminescent compound, luminescent composition, luminescent thin film and luminescent particles” (KONICA MINOLTA, INC., priority 2020, dated 2026).

Molecules are shown by their SMILES.

This data set is described as follows: Luminescence quantum yield of luminescent particles (melamine resin particles, aqueous dispersion). In kind it is physicochemical. Particulars: luminescent particle, concentration of the dye in the particle 20%, absolute fluorescence quantum yield. Here is the method: The synthesized luminescent compound (Exemplary Compound 1-1) according to one or more embodiments of the present invention was added to 22 mL of water and dissolved. Thereafter, 2 mL of a 5% aqueous solution of Emulsion® 430 (polyoxyethyleneoleyl ether, manufactured by Kao Corporation), an emulsifier for emulsion polymerization, was added to the solution. After the solution was heated to 70° C. with stirring on a hot stirrer, 0.65 g of NIKALAC MX-035 (manufactured by Nippon Carbide Industries Co., Inc.), a melamine resin raw material, was added thereto. […]
Specifically, centrifugation was performed for 15 minutes at 20000 G using a centrifuge (Micro Refrigerated Centrifuge Model 3740 manufactured by Kubota Corporation), the supernatant was removed, ultrapure water was added thereto, ultrasonic irradiation was performed, and redispersion was performed. […] The absolute fluorescence quantum yield of the obtained aqueous dispersion of the fluorescent particles was measured using the fluorescence quantum yield measuring device (C11347-01, manufactured by Hamamatsu Photonics K.K), and this was taken as the luminescence quantum yield of the luminescent particles.
With respect to the above-described Comparative Compound 1 and Comparative Compound 2, preparation of luminescent particles and measurement of the luminescence quantum yield were performed in the same manner. […]

`CC(C)c1cccc(C(C)C)c1N1C(=O)c2cc(Oc3ccc(S(=O)(=O)O)cc3)c3c4c(Oc5ccc(S(=O)(=O)O)cc5)cc5c6c(cc(Oc7ccc(S(=O)(=O)O)cc7)c(c7c(Oc8ccc(S(=O)(=O)O)cc8)cc(c2c37)C1=O)c64)C(=O)N(c1c(C(C)C)cccc1C(C)C)C5=O` [Comparative Compound 1]: the “Luminescence Quantum Yield” value is given as 10%.

Turning to `CC(C)c1cccc(C(C)C)c1N1C(=O)c2cc(Oc3ccc(S(=O)(=O)O)cc3-c3ccccc3)c3c4c(Oc5ccc(S(=O)(=O)O)cc5-c5ccccc5)cc5c6c(cc(Oc7ccc(S(=O)(=O)O)cc7-c7ccccc7)c(c7c(Oc8ccc(S(=O)(=O)O)cc8-c8ccccc8)cc(c2c37)C1=O)c64)C(=O)N(c1c(C(C)C)cccc1C(C)C)C5=O` [Comparative Compound 2], the “Luminescence Quantum Yield” value came to 9%.
